Assay results reported in US20260041741A1, “CD39 AND CD73 FOR THE THERAPY OF HEMORRHAGIC SHOCK” (The Trustees of Columbia University in the City of New York, priority 2023, published 2026).

B1: rhCD73: recombinant human (rh) CD73 from Daresbury Proteins; CD73 mimic (protein, UniProt P21589 27-549, looked up)
5'-nucleotidase: WELTILHTNDVHSRLEQTSEDSSKCVNASRCMGGVARLFTKVQQIRRAEPNVLLLDAGDQYQGTIWFTVYKGAEVAHFMNALRYDAMALGNHEFDNGVEGLIEPLLKEAKFPILSANIKAKGPLASQISGLYLPYKVLPVGDEVVGIVGYTSKETPFLSNPGTNLVFEDEITALQPEVDKLKTLNVNKIIALGHSGFEMDKLIAQKVRGVDVVVGGHSNTFLYTGNPPSKEVPAGKYPFIVTSDDGRKVPVVQAYAFGKYLGYLKIEFDERGNVISSHGNPILLNSSIPEDPSIKADINKWRIKLDNYSTQELGKTIVYLDGSSQSCRFRECNMGNLICDAMINNNLRHTDEMFWNHVSMCILNGGGIRSPIDERNNGTITWENLAAVLPFGGTFDLVQLKGSTLKKAFEHSVHRYGQSTGEFLQVGGIHVVYDLSRKPGDRVVKLDVLCTKCRVPSYDPLKMDEVYKVILPNFLANGGDGFQMIKDELLRHDSGDQDINVVSTYISKMKVIYPAVEGRIKFS

Experiments:
T/HS mice [1] = test: Plasma AST and ALT levels (liver injury) after trauma/hemorrhagic shock; type: in vivo; details: for T/HS-enhanced ALT level in plasma / T/HS-enhanced AST level in plasma: wild-type T/HS mice vs vehicle, i.p. pretreatment 30 min before shock; for liver injury: T/HS mice
Method: (§1) In one set of studies, wild-type mice were randomly assigned into the following groups: trauma/sham shock (T/SS) receiving vehicle (saline), trauma/hemorrhagic shock (T/HS) receiving vehicle (saline), T/HS receiving POM1 (5 mg/kg), T/HS receiving apyrase (125 U/kg), T/HS receiving PSB 12379 (50 mg/kg), and T/HS receiving rhCD73 (2 mg/kg). In addition, in another group of studies, CD39^−/−, CD73^−/−, A2BAR^−/− and wild-type type mice were subjected to T/SS or T/HS. Some CD39^−/− and CD73^−/− were pretreated with NECA (0.0025 mg/kg). In pharmacological experiments, mice were pretreated intraperitoneally (30 min before T/SS or T/HS) with various agents.
(§2) The mice were given anesthesia using 1% isoflurane and their rectal temperature was maintained between 36.5 and 37.5° C. using a feedback-controlled homeothermic blanket heating system (Sumno-suite, Kent Scientific). Hemorrhagic shock was induced using a fixed-pressure model. Initially, a midline laparotomy of 2 cm was performed on the anesthetized mice, which was later closed with a 4-0 silk suture (034902, Covetrus, USA). Following this, catheters were placed in the right and left femoral arteries for monitoring blood pressure and blood withdrawal, respectively. A sterile 1-ml syringe with a 30G needle attached to PE-10 tubing filled with 0.2 ml of 1% heparinized saline was used for blood withdrawal, and each mouse received 1U heparin. Blood pressure was monitored using a continuous blood-pressure monitoring system (Powerlab 8/30, ADInstruments, Colorado Springs, CO, USA). After 5 minutes of baseline blood pressure recording, a drug or vehicle was administered to the mice, followed by inducing shock for a period of 2.5 hours, during which the blood pressure was maintained between 28-32 mmHg by withdrawing or reinfusing the shed blood. At the end of the shock period, the mice were resuscitated with Ringer's Lactate at three times the amount of shed blood for 15 minutes (32). Three hours after resuscitation, the mice were euthanized and bronchoalveolar lavage fluid (BALF), blood, and tissue samples were collected. T/SS animals were exposed to the same procedures as other animals except for blood withdrawal (FIG. 1).
Plasma samples were analyzed to determine the levels of aspartate aminotransferase (AST) and alanine aminotransferase (ALT). To do this, the samples were diluted with AST (TR70121 Thermo Fisher, USA) and ALT (TR71122 Thermo Fisher, USA) reagents at a 1:10 ratio, and the resulting light signal was measured using a spectrophotometer at 340 and 405 nm (32).

T/HS mice [2] = test: Plasma IL-6 and IL-10 by ELISA after trauma/hemorrhagic shock; type: in vivo; details: T/HS mice compared to vehicle-treated T/HS mice
Method: as §1, §2
IL-6 and IL-10 levels were measured in plasma samples using enzyme-linked immunosorbent assay (ELISA) kits (DY406, DY417; R&D Systems Minneapolis, USA) according to the manufacturer's instructions (32).

T/HS mice [3] = test: Lung permeability (Evans blue dye) after trauma/hemorrhagic shock; type: in vivo; details: wild-type T/HS mice vs vehicle; i.p. pretreatment 30 min before shock; POM1 5 mg/kg, apyrase 125 U/kg, PSB 12379 50 mg/kg, rhCD73 2 mg/kg
Method: as §1, §2
Mice were re-anesthetized with isoflurane 3 hours after the end of resuscitation. Evans blue dye (EBD) technique was used to determine lung permeability. EBD was administered through the tail vein, and about 1 ml of blood was withdrawn from the tail artery five minutes later. The supernatant of BALF was assayed at 620 nm spectrophotometrically. The amount of Evans blue dye in the BALF was then expressed as a proportion of the amount in the plasma. (5, 32).

T/HS mice [4] = test: Pulmonary neutrophil sequestration (lung MPO activity) after trauma/hemorrhagic shock; type: in vivo; details: for neutrophil sequestration / infiltration in lung (MPO activity): wild-type T/HS mice vs vehicle, i.p. pretreatment 30 min before shock, POM1 5 mg/kg, apyrase 125 U/kg, PSB 12379 50 mg/kg, rhCD73 2 mg/kg; for neutrophil infiltration (lung MPO activity): NECA pretreatment 0.0025 mg/kg
Method: as §1, §2
Lung, liver, kidney, and gut samples were pooled from 4 mice in the same group, homogenized, sonicated, and treated with a 1×RIPA Buffer with Protease/phosphatase inhibitor cocktail (P8340, Sigma, USA), and the resulting homogenate was centrifuged at 13.000× g for 10 minutes at 4° C. Total protein content was determined by using Qubit 4.0 Fluorometer (Thermo Fisher, USA) as per the manufacturer's instructions.
To evaluate neutrophil sequestration in the lung following T/SS or T/HS, myeloperoxidase (MPO) activity was assessed using an MPO activity kit (MAK068, Sigma, USA). The supernatant of lung lysates was assayed according to the manufacturer's instructions (32).

rat model of T/HS = details: posttreatment; cited from earlier work
[5] = test system: hypoxic CD73 deficient mice; details: exogenous administration; cited from earlier work
CD39 deficient mice = details: cardiac, renal, hepatic, intestinal ischemia-reperfusion, exogenous supplementation; cited from earlier work

Molecule | T/HS-enhanced ALT level in plasma (T/HS mice [1]) | T/HS-enhanced AST level in plasma (T/HS mice [1]) | plasma IL-6 levels (T/HS mice [2]) | plasma IL-10 levels (T/HS mice [2]) | T/HS-induced lung injury (lung permeability, EBD method) (T/HS mice [3]) | neutrophil sequestration / infiltration in lung (MPO activity) (T/HS mice [4]) | lung permeability (rat model of T/HS) | neutrophil infiltration into the lung (rat model of T/HS) | increased vascular permeability [5] | polymorphonuclear neutrophil extravasation [5] | neutrophil infiltration (lung MPO activity) (T/HS mice [4]; CD39-/- mice after T/HS) | neutrophil infiltration (lung MPO activity) (T/HS mice [4]; CD73-/- mice after T/HS) | liver injury (T/HS mice [1]) | increased ischemic organ injury (CD39 deficient mice)
O=P(O)(O)CP(=O)(O)OC[C@H]1O[C@@H](n2cnc3c(NCc4ccccc4)ncnc32)[C@H](O)[C@@H]1O.[Na].[Na] [PSB 12379, N6-Benzyl-α,β-methyleneadenosine 5′-diphosphate disodium salt] | increased | increased | increased | reduced | increased | increased | – | – | – | – | – | – | – | –
N#Cc1c(N)nc(SCC(N)=O)c(C#N)c1-c1ccc(OCC2CC2)cc1 [BAY 60-6583] | – | – | – | – | – | – | decreases | not | – | – | – | – | – | –
CCNC(=O)[C@H]1O[C@@H](n2cnc3c(N)ncnc32)[C@H](O)[C@@H]1O [NECA, 1-(6-Amino-9H-purin-9-yl)-1-deoxy-N-ethyl-β-D-ribofuranuronamide] | – | – | – | – | – | – | – | – | reversed | reversed | decreased | decreased | – | –
apyrase | suppressed | suppressed | lower | increased | moderated | moderated | – | – | – | – | – | – | decreased | reversed
sodium polyoxotungstate [POM1] | increased | increased | higher | similar | exacerbated | exacerbated | – | – | – | – | – | – | – | –
B1 | suppressed | suppressed | decreased | increased | decreased | decreased | – | – | – | – | – | – | decreased | –
